Reference: US20170240592A1, “GADD45BETA/MKK7 INHIBITOR FOR THE TREATMENT OF A RESISTANT HAEMATOLOGICAL MALIGNANCY” (IMPERIAL INNOVATIONS LIMITED, priority 2014, published 2017)

Target: T1, Gadd45β binding to MKK7 (Homo sapiens, UniProt O14733)
T1 construct: Full-length human (h)MKK7 was expressed as a protein fused to an N-terminal GST tag (GST-MKK7); made in house
T1 sequence (O14733 1-419): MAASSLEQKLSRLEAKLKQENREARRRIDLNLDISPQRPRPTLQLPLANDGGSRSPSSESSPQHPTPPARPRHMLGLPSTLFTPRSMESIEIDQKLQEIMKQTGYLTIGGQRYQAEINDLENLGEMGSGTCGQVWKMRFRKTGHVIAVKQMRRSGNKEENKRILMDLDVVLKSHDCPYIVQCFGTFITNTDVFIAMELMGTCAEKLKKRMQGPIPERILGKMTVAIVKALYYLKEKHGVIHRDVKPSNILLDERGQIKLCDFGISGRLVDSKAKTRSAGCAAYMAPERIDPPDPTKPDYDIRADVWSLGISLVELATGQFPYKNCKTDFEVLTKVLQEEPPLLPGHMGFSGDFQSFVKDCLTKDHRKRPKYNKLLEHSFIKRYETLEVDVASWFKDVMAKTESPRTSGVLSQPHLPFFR
Assay: ELISA Gadd45β/MKK7 competition assay
Description: Values express the percentage of live cells present in the treated cultures relative to the live cells present in the respective untreated cultures and denote means±SD ([WM]; n=3). UT, untreated. […] Values express the percentage of inhibition of Gadd45β binding to MKK7 relative to the binding measured in the absence of peptide. […] Co-immunoprecipitations (IP) were performed using an anti-FLAG antibody (a-FLAG); western blots (WB) were developed using an anti-HA or an anti-MKK7 antibody, as shown.
Proteins were purified as described in Tornatore et al., 2008. Individual peptides were synthesised as reported in Sandomenico et al., 2012. […] Peptide identity and purity were determined using liquid chromatography-mass spectrometry (LC-MS). […]
Recombinant proteins were purified as described previously (Tornatore et al., 2008). Briefly, full-length human (h)GADD45β was expressed as a protein fused to a poly-histidine (His6) tag and purified by affinity chromatography using His-Trap columns (GE Healthcare). […] Full-length human (h)MKK7 was expressed as a protein fused to an N-terminal GST tag (GST-MKK7), purified using GST-Trap as above, and then used for ELISA analyses. […] The kinase domain (KD) of hMKK7 (amino acids 101-405) was expressed as a protein fused to an N-terminal His6 tag in E. coli (BL21[DE3] strain) using the pETDuet-1 vector (Novagen). […]

`CC(=O)N[C@H](Cc1ccc(O)cc1)C(=O)N[C@H](CCCNC(=N)N)C(=O)N[C@H](Cc1ccccc1)C(N)=O` [DTP3, Acetyl-Tyr-Arg-Phe-NH2] was tested, and the Gadd45β/MKK7 inhibitor activity was “sub-nM” and the stability in vitro (before and after 48-hr pre-incubation with human serum at 37° C.) was “high stability in vitro”.
